Consider 72 compounds from patent publication US10940139B2, “Compounds that interact with the Ras superfamily for the treatment of cancers, inflammatory diseases, rasopathies, and fibrotic disease” (Shy Therapeutics LLC, priority 2017, dated 2021).

The subject of one experiment is MAPK phosphorylation in PANC-1 pancreatic cancer cell line. Description: MAPK cell-based phosphorylation assay (cell-direct ELISA, EGF stimulation). The note with it: Homo sapiens. The gist of the method: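 Cell-direct ELISA measured phospho-MAPK, with fluorescence read at 595 nm from AmpliFlu Red. Before fixation, PANC-1 cells starved overnight received 6 hours of compound (30 μM single dose or serial dilutions, 0.3% DMSO, 37° C), followed by 1.5 ng/ml EGF for 15 min.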
On the technique in general: ELISA stands for enzyme-linked immunosorbent assay.
As usually defined, the IC50 is the point on the concentration scale where inhibition reaches its midpoint. For the compound `COc1ccnc(-c2nc(O)c3c(Br)csc3n2)c1` [drawing 1133], the half-maximal inhibitory concentration (IC50) was 2 to 10 µM.

`O=C(c1csc2c(O)nc(-c3ccccn3)nc12)N1CCOC(c2nccs2)C1` (stereo not shown) [drawing 1129]: the IC50 is over 30 µM. Same read-out and setting: then `COc1ccnc(-c2nc(O)c3ccsc3n2)c1` [drawing 1114], with over 30 µM. `Oc1nc(-c2ccccn2)nc2c(-c3ccc(F)cc3F)csc12` [drawing 1210] had a half-maximal inhibitory concentration (IC50) of 2 to 10 µM.

The compound `Oc1nc(-c2ccccn2)nc2c(-c3cc(Cl)cc(Cl)c3)csc12` [drawing 1192] returned a half-maximal inhibitory concentration (IC50) of over 30 µM. On the same count and under the same terms, then `Oc1nc(-c2ccccn2)nc2scc(Br)c12` [drawing 1080], with 2 to 10 µM; and `COc1cccc(N2CCN(C(=O)c3csc4c(O)nc(-c5ccccn5)nc34)CC2)c1` [drawing 1118], with over 30 µM.

Still in this experiment, the particulars now being: Homo sapiens, * = tested at 10 μM.
For orientation: inhibition means the relative decrease from the control value, in per cent. High values mean a response far below the control, low ones a response near the control. Regarding `CCN(CC)CCOc1nc(-c2nccn2C)nc2sc(-c3ccccc3)c(-c3ccccc3)c12` [drawing 1333], the inhibition at 10 µM was 76 to 100%. On the same count and under the same terms, then `Nc1nc(-c2ccccn2)nc2c(Br)csc12` [drawing 1229], with 25 to 50%. On the same count and under the same terms, for `COc1cnc(-c2cnc[nH]2)nc1O` [drawing 1276] the value was 1 to 25%; for `Cc1ccc(-c2cc3nc(-c4ccccn4)nc(O)c3s2)cc1` [drawing 1315], 76 to 100%. Same read-out and setting: for `Cc1cc2nc(-c3ccccn3)nc(O)c2s1` [drawing 1246] the value was 25 to 50%; for `OCC1(c2ccc(-c3csc4c(O)nc(-c5ccccn5)nc34)cc2)CC1` [drawing 1223], 51 to 75%. `Cn1ccnc1-c1nc(O)c2sc(-c3ccccc3)c(-c3cccc(C(F)(F)F)c3)c2n1` [drawing 1352] returned an inhibition at 10 µM of 0%. For the compound `COc1c(O)nc(-c2ccccn2)nc1Oc1cccc(C(F)(F)F)c1` [drawing 1317], the inhibition at 10 µM was 1 to 25%.

`Oc1nc(-c2ccccn2)nc(Oc2cccc(C(F)(F)F)c2)c1O` [drawing 1318] had an inhibition at 10 µM of 1 to 25%. Same read-out and setting: then `COc1nc(-c2cn(C)cn2)nc2sc(-c3ccncc3)c(-c3ccccc3)c12` [drawing 1291], with 1 to 25%; and `Cc1sc2c(O)nc(-c3nccn3C)nc2c1-c1ccc(OCC(C)C)nc1` [drawing 1360], with 25 to 50%. Still for that read-out and setting: then `COc1ccnc(-c2nc(O)c3c(C(F)(F)F)csc3n2)c1` [drawing 1186], with 1 to 25%; and `Oc1nc(-c2ccccn2)nc2c(-c3ccc(F)cc3F)csc12` [drawing 1210], with 76 to 100%; and `Cc1sc2c(O)nc(-c3nccn3C)nc2c1-c1ccccc1Cl` [drawing 1362], with 1 to 25%.

`Oc1nc(-c2ccccn2)nc2c(-c3cncnc3)csc12` [drawing 1265] yielded an inhibition at 10 µM of 0%. `Nc1cccc(-c2csc3c(O)nc(-c4ccccn4)nc23)n1` [drawing 1274] registered an inhibition at 10 µM of 51 to 75%. Same read-out and setting: then `Cn1ccnc1-c1nc(O)c2scc(-c3ccccc3)c2n1` [drawing 1374], with 76 to 100%; and `COCCNc1nc(-c2nccn2C)nc2sc(-c3ccccc3Cl)c(-c3ccccc3)c12` [drawing 1341], with 76 to 100%. Still for that read-out and setting: then `COCCNc1nc(-c2nccn2C)nc2sc(-c3ccccc3)c(-c3ccncc3)c12` [drawing 1356], with 25 to 50%.

Compound `COCCCNc1nc(-c2nccn2C)nc2sc(-c3ccccc3)c(-c3ccccc3)c12` [drawing 1330] registered an inhibition at 10 µM of 76 to 100%. `N#Cc1ccc2c(c1)CCCC2C(=O)Nc1ccnc(-c2ccccn2)n1` (stereo not shown) [drawing 1197] yielded an inhibition at 10 µM of 1 to 25%. Still for that read-out and setting: for `COC(C)(C)c1ccc(-c2csc3c(O)nc(-c4nccn4C)nc23)cc1` [drawing 1378] the value was 25 to 50%; for `COc1nccc(CCNC(=O)c2csc3nc(-c4ccccn4)nc(N4CCOCC4)c23)n1` [drawing 1234], 25 to 50%. As to `Oc1nc(-c2ccccn2)nc2c(-c3cc(Cl)cc(Cl)c3)csc12` [drawing 1192], the inhibition at 10 µM is 1 to 25%. The same measure, in the same setting: then `Cn1ccnc1-c1nc(O)c2scc(-c3ccc(C(C)(C)C)cc3)c2n1` [drawing 1379], with 25 to 50%; and `Cn1cnc(-c2nc(O)c3scc(-c4cccc(OC(F)(F)F)c4)c3n2)c1` [drawing 1366], with 1 to 25%. Regarding `Cc1sc2c(O)nc(-c3ccccn3)nc2c1C(=O)N1CCN(Cc2cccc(O)c2)CC1` [drawing 1271], the inhibition at 10 µM was in the range of 25 to 50%.

On to `COCCNc1nc(-c2nccn2C)nc2sc(-c3ccccc3)c(-c3ccccn3)c12` [drawing 1382], for which the inhibition at 10 µM lay within 51 to 75%. Still for that read-out and setting: for `Cn1ccnc1-c1nc(O)c2sc(-c3ccccc3)c(-c3ccccc3Cl)c2n1` [drawing 1355] the value was 51 to 75%; for `Oc1nc(-c2ccccn2)nc2c(-c3ccc(OC(F)F)cc3F)csc12` [drawing 1215], 51 to 75%; for `Oc1nc(-c2ccccn2)nc2c(C3CC3)csc12` [drawing 1278], 51 to 75%. On the same count and under the same terms, then `COc1nc(-c2ccccn2)nc(Oc2cccc(C(F)(F)F)c2)c1O` [drawing 1325], with 1 to 25%; and `COCCNc1nc(-c2ccccn2)nc2sc(-c3ccccc3)c(-c3ccccn3)c12` [drawing 1380], with 0%; and `O=C(c1csc2c(O)nc(-c3ccccn3)nc12)N1CCNC(c2cn[nH]c2)C1` (stereo not shown) [drawing 1200], with 25 to 50%. In turn, `COC1CCN(c2nc(-c3nccn3C)nc3sc(-c4ccccc4)c(-c4ccccc4)c23)C1` (stereo not shown) [drawing 1331] gave an inhibition at 10 µM of 76 to 100%. The same measure, in the same setting: then `COCCNc1nc(-c2nccn2C)nc2sc(-c3cccc(OC)c3)c(-c3ccccc3)c12` [drawing 1346], with 76 to 100%; and `COCCNc1nc(-c2nccn2C)nc2sc(C)c(-c3ccccc3)c12` [drawing 1344], with 51 to 75%. Regarding `Cc1sc2c(O)nc(-c3ccccn3)nc2c1C(=O)N1CCN(c2ccccc2)CC1` [drawing 1269], the inhibition at 10 µM lay within 1 to 25%. Still for that read-out and setting: for `COc1ccc(-c2cc3nc(-c4ccccn4)nc(O)c3s2)cc1` [drawing 1323] the value was 1 to 25%.

The experiment is the same for the next values; noted with them: Homo sapiens, at 30 μM.
As for `COc1ccnc(-c2nc(O)c3c(Br)csc3n2)c1` [drawing 1133], the inhibition at 30 µM lay in the range of 76 to 100%. Compound `NC(=O)C1CCCN(c2nc(-c3ccccn3)nc3scc(-c4ccccc4)c23)C1` (stereo not shown) [drawing 1107] returned an inhibition at 30 µM of 1 to 25%.

Turning to `O=C(c1csc2c(O)nc(-c3ccccn3)nc12)N1CCN(c2cccc(F)c2)CC1` [drawing 1137], the inhibition at 30 µM was 1 to 25%. Still for that read-out and setting: then `c1ccc(-c2csc3nc(-c4ccccn4)nc(N4CCN(Cc5cccnc5)CC4)c23)cc1` [drawing 1087], with 1 to 25%.

In turn, `N#Cc1ccccc1N1CCN(C(=O)c2csc3c(O)nc(-c4ccccn4)nc23)CC1` [drawing 1122] yielded an inhibition at 30 µM of 1 to 25%. Still for that read-out and setting: for `O=C(c1csc2c(O)nc(-c3ccccn3)nc12)N1CCOC(c2nccs2)C1` (stereo not shown) [drawing 1129] the value was 25 to 50%; for `O=C1CCN(c2nc(-c3ccccn3)nc3scc(-c4ccccc4)c23)CC1` [drawing 1110], 25 to 50%; for `COc1ccc(CC(=O)Nc2nnc(-c3ccccn3)[nH]2)cc1` [drawing 1006], 1 to 25%. Still for that read-out and setting: for `COc1ccnc(-c2nc(O)c3c(Cl)csc3n2)c1` [drawing 1162] the value was 1 to 25%. On the same count and under the same terms, then `O=C(CCc1c[nH]c2ccccc12)Nc1nnc(-c2ccccn2)[nH]1` [drawing 1001], with 25 to 50%; and `COc1ccc(C2CN(C(=O)c3csc4c(O)nc(-c5ccccn5)nc34)CCN2)cc1` (stereo not shown) [drawing 1151], with 25 to 50%; and `O=C(CN1CCN(c2nc(-c3ccccn3)nc3scc(-c4ccccc4)c23)CC1)N1CCCCC1` [drawing 1096], with 25 to 50%. In turn, `COc1ccnc(-c2nc(O)c3ccsc3n2)c1` [drawing 1114] registered an inhibition at 30 µM of 51 to 75%. Same read-out and setting: then `CC(Oc1ccccc1C#N)C(=O)Nc1nnc(-c2ccccn2)[nH]1` (stereo not shown) [drawing 1013], with 51 to 75%; and `OC1CCCN(c2nc(-c3ccccn3)nc3scc(-c4ccccc4)c23)C1` (stereo not shown) [drawing 1102], with 51 to 75%; and `Nc1nc(O)c2scc(C(=O)N3CCc4ccccc4CC3)c2n1` [drawing 1063], with 1 to 25%. Still for that read-out and setting: then `O=C(c1csc2c(O)nc(-c3ccccn3)nc12)N1CCC(c2cccnc2)CC1` [drawing 1070], with 1 to 25%; and `O=C(c1csc2c(O)nc(-c3ccccn3)nc12)N1CCN(c2ccccc2Cl)CC1` [drawing 1119], with 1 to 25%; and `COc1cnc(CNC(=O)Cn2cnc3nc(-c4ccccn4)nc(N4CCOCC4)c32)[nH]c1=O` [drawing 1183], with 1 to 25%. Still for that read-out and setting: then `Cc1cccc(CN(Cc2ccccn2)Cc2nccn2C)c1` [drawing 1045], with 25 to 50%; and `COc1ccc(N2CCN(C(=O)c3csc4c(O)nc(-c5ccccn5)nc34)CC2)cc1O` [drawing 1164], with 1 to 25%; and `O=C(c1csc2c(O)nc(-c3ccccn3)nc12)N1CCN(Cc2ccccc2)CC1` [drawing 1144], with 1 to 25%. `Oc1nc(-c2ccccn2)nc2scc(Br)c12` [drawing 1080]: the inhibition at 30 µM lay in the range of 76 to 100%. `COc1cccc(N2CCN(C(=O)c3csc4c(O)nc(-c5ccccn5)nc34)CC2)c1` [drawing 1118]: the inhibition at 30 µM fell in the range of 76 to 100%. Same read-out and setting: then `O=C(Nc1nnc(-c2ccccn2)[nH]1)C1CCn2c(cnc2-c2ccccc2)C1` (stereo not shown) [drawing 997], with 1 to 25%. Still for that read-out and setting: for `O=C(Nc1nnc(-c2ccccn2)[nH]1)C1CCCC(C(F)(F)F)C1` (stereo not shown) [drawing 1017] the value was 51 to 75%; for `COCCCC1CCN(C(=O)c2csc3c(O)nc(-c4ccccn4)nc23)CC1` [drawing 1066], 1 to 25%. On the same count and under the same terms, for `O=C(c1csc2c(O)nc(-c3ccccn3)nc12)N1CCOC(c2ccc(Cl)cc2)C1` (stereo not shown) [drawing 1127] the value was 1 to 25%; for `COCCN(CCOC)c1nc(-c2ccccn2)nc2scc(C(=O)NCCc3ccc(OC)nc3)c12` [drawing 1157], 1 to 25%; for `O=C(c1csc2c(O)nc(-c3ccccn3)nc12)N1CCN(Cc2ccc(O)c(Cl)c2)CC1` [drawing 1147], 25 to 50%. The compound `O=C(Nc1nnc(-c2ccccn2)[nH]1)C1CCN(C(=O)c2cccs2)CC1` [drawing 1027] came in with an inhibition at 30 µM of 1 to 25%.

As to `O=C1CN(c2nc(-c3ccccn3)nc3scc(-c4ccccc4)c23)CCN1` [drawing 1082], the inhibition at 30 µM lay within 1 to 25%. On the same count and under the same terms, for `O=C(Nc1nc(-c2ccccn2)cs1)c1cccnc1` [drawing 1032] the value was 1 to 25%.
